Measurements taken from patent publication US10383938B2 (priority 2010, dated 2019).
“And” between values parts separate entries of the source, which are not always exact repeats. Equal values may be shown once.

Assays:
HA-specific IgG2a = system: HA-specific IgG2a; design: species or system mice; settings: mouse, in vivo, sc, 1 mg/kg
[1] = system: HA-specific IgG1 and IgG2a; design: species or system Balb/c male mice; settings: mouse, in vivo

| SMILES | HA Specific IgG2a, Serum Dilution End Point (HA-specific IgG2a) | IgG1 End Point [1] | antibody response to HA (in words) ([1]; 0.1 mg/kg) |
| --- | --- | --- | --- |
| CCCCCCCCCCCCCCCCCC(=O)NCCCCOn1c(CCCC)nc2c(N)nc3ccccc3c21 [N-(4-{[4-amino-2-butyl-1H-imidazo[4,5-c]quinolin-1-yl]oxy}butyl)octadecanamide] | 1.42E+04 | 1.7E7 and 1.4E7 and 1.1E7 | greatly enhanced the antibody response |
| CCOCc1nc2c(N)nc3ccccc3c2n1CC(C)(C)O [Resiquimod, resiquimod, reference compound] | 1.00E+05 | – | – |
